In US20120130146A1, “CONTINUOUS ADMINISTRATION OF CILENGITIDE IN CANCER TREATMENTS” (Merck Patent GmbH, priority 2009, published 2012):
Several values for one entry are separate records, joined by “and”; a condition that tells them apart may be missing. Equal values may be shown once. Read-outs that look alike come from different tables or passages of the source.

Assay: Continuous infusion study pharmacokinetics (plasma)
Type: in vivo, human
Conditions: for dose proportionality of steady-state concentration (Css): continuous infusion 1-12 mg/h; for level at 2 h / level at 168 h / level at 170 h / level at 336 h / level at 338 h / level at 504 h / level at 506 h: iv
Procedure: Patients with solid tumors received a continuous infusion of 1 mg/h, 2 mg/h, 4 mg/h, 8 mg/h or 12 mg/h. with a weekly change of infusion bag.
Blood samples were taken on Day 1 (first dose) at pre-dose and 2 h after start of infusion and then weekly just before change of infusion bag and 2 hours thereafter for the first 4 weeks.
The following pharmacokinetic parameters were derived at Merck KGaA. Darmstadt, Germany, by mathematical methods using Kinetica Version 4.1.1.
CL the total body clearance of EMD 121974 from plasma Css plasma concentration at steady state ke elimination rate constant Rate infusion rate t1/2, half life V Volume of distribution
Css, the plasma concentration at steady state, has been estimated by the arithmetic mean of all concentration values from time point 168 h to 506 h per patient.
From Css and t1/2 the PK parameters CL, ke and V were calculated as follows: […]

[1] = Rate 12 mg/h, Mean, t1/2 = 4 hours

In the case of CC(C)[C@H]1C(=O)N[C@@H](CCCN=C(N)N)C(=O)NCC(=O)N[C@@H](CC(=O)O)C(=O)N[C@H](Cc2ccccc2)C(=O)N1C [Cilengitide, cyclo-(Arg-Gly-Asp-DPhe-NMeVal)], the “EMD 121974 Concentrations” value (Rate 12 mg/h, 168 h, individual subjects, listed as EMD 121974) is reported as 777.00 ng/mL and 2550.00 ng/mL and 1980.00 ng/mL, the “EMD 121974 Concentrations” value (Rate 12 mg/h, 170 h, individual subjects, listed as EMD 121974) is reported as 1130.00 ng/mL and 1770.00 ng/mL and 1340.00 ng/mL and the “EMD 121974 Concentrations” value (Rate 12 mg/h, 336 h, individual subjects, listed as EMD 121974) is reported as 4280.00 ng/mL and 1250.00 ng/mL and 1790.00 ng/mL. For the same molecule, the “EMD 121974 Concentrations” value (Rate 12 mg/h, 338 h, individual subjects, listed as EMD 121974) was 1780.00 ng/mL and 1610.00 ng/mL and 1620.00 ng/mL, the “EMD 121974 Concentrations” value (Rate 12 mg/h, 504 h, individual subjects, listed as EMD 121974) was 2220.00 ng/mL and 989.00 ng/mL and 2050.00 ng/mL and the “EMD 121974 Concentrations” value (Rate 12 mg/h, 506 h, individual subjects, listed as EMD 121974) was 1550.00 ng/mL and 1230.00 ng/mL and 1880.00 ng/mL. The CL (Rate 12 mg/h, CL=Rate/Css, individual subjects, listed as EMD 121974) was 7.66 L/h and 6.75 L/h, the “V, Mean” value [1] was 39.5 L and the “ke, Mean” value [1] was 0.173 h⁻¹. The V (Rate 12 mg/h, V=CL/ke, t1/2 = 4 hours, individual subjects, listed as EMD 121974) was 35.4 L and 44.2 L and 39.0 L, the ke (Rate 12 mg/h, for t1/2 = 4 hours, individual subjects) was 0.173 h⁻¹ and the Css (Rate 12 mg/h, mean of 168 h to 506 h values per patient, individual subjects, listed as EMD 121974) was 1956.2 ng/mL and 1566.5 ng/mL and 1776.7 ng/mL. For the same molecule, the “time to reach steady state conditions” value (assuming a half-life of 4 hours) was no more than 24 h, the “dose proportionality of steady-state concentration (Css)” value (listed as EMD) was “increased proportionally to dose” and the “dose proportionality of steady-state concentration (Css)” value (listed as EMD 121974) was “increase proportional to dose”. The clearance (human, plasma, intravenous, 1 mg/h, Rate 1 mg/h, Mean, read-out: CL, Mean (converted)) was 139 mL/min, the clearance (human, plasma, intravenous, 2 mg/h, Rate 2 mg/h, CL=Rate/Css, individual subjects, read-out: CL (converted)) was 115 mL/min and the clearance (human, plasma, intravenous, 2 mg/h, Rate 2 mg/h, Mean, read-out: CL, Mean (converted)) was 95.3 mL/min. The clearance (human, plasma, intravenous, 4 mg/h, Rate 4 mg/h, CL=Rate/Css, individual subjects, read-out: CL (converted)) was 107 mL/min, the clearance (human, plasma, intravenous, 4 mg/h, Rate 4 mg/h, Mean, read-out: CL, Mean (converted)) was 109 mL/min and the clearance (human, plasma, intravenous, 8 mg/h, Rate 8 mg/h, Mean, read-out: CL, Mean (converted)) was 112 mL/min. It also gave a clearance (human, plasma, intravenous, 12 mg/h, Rate 12 mg/h, CL=Rate/Css, individual subjects, read-out: CL (converted)) of 102 mL/min, a clearance (human, plasma, intravenous, 12 mg/h, Rate 12 mg/h, Mean, read-out: CL, Mean (converted)) of 114 mL/min and a clearance (human, plasma, intravenous, range of dose-group means, 1-12 mg/h, read-out: mean clearance) of 95.3 to 139 mL/min. For the same molecule, the Vd (human, plasma, intravenous, range of dose-group means, 1-12 mg/h, t1/2 = 4 hours assumed, read-out: Mean volume of distribution) was 33 to 48 L, the level at 2 h (human, plasma, 1 mg/h, Rate 1 mg/h, Mean, read-out: EMD 121974 Concentrations, Mean) was 39.1 ng/mL and the level at 168 h (human, plasma, 1 mg/h, Rate 1 mg/h, 168 h, Mean, read-out: EMD 121974 Concentrations, Mean) was 156 ng/mL. For the same molecule, the level at 170 h (human, plasma, 1 mg/h, Rate 1 mg/h, 170 h, Mean, read-out: EMD 121974 Concentrations, Mean) was 66.6 ng/mL, the level at 336 h (human, plasma, 1 mg/h, Rate 1 mg/h, 336 h, Mean, read-out: EMD 121974 Concentrations, Mean) was 209 ng/mL and the level at 338 h (human, plasma, 1 mg/h, Rate 1 mg/h, 338 h, Mean, read-out: EMD 121974 Concentrations, Mean) was 191 ng/mL. For the same molecule, the level at 504 h (human, plasma, 1 mg/h, Rate 1 mg/h, 504 h, Mean, read-out: EMD 121974 Concentrations, Mean) was 62.1 ng/mL, the level at 504 h (human, plasma, 1 mg/h, Rate 1 mg/h, 504 h, individual subjects, read-out: EMD 121974 Concentrations) was 62.1 ng/mL and the level at 506 h (human, plasma, 1 mg/h, Rate 1 mg/h, 506 h, Mean, read-out: EMD 121974 Concentrations, Mean) was 109 ng/mL. The level at 506 h (human, plasma, 1 mg/h, Rate 1 mg/h, 506 h, individual subjects, read-out: EMD 121974 Concentrations) was 94.4 ng/mL, the level at 2 h (human, plasma, 2 mg/h, Rate 2 mg/h, Mean, read-out: EMD 121974 Concentrations, Mean) was 162 ng/mL and the level at 168 h (human, plasma, 2 mg/h, Rate 2 mg/h, 168 h, Mean, read-out: EMD 121974 Concentrations, Mean) was 344 ng/mL. For the same molecule, the level at 170 h (human, plasma, 2 mg/h, Rate 2 mg/h, 170 h, Mean, read-out: EMD 121974 Concentrations, Mean) was 280 ng/mL, the level at 336 h (human, plasma, 2 mg/h, Rate 2 mg/h, 336 h, Mean, read-out: EMD 121974 Concentrations, Mean) was 495 ng/mL and the level at 338 h (human, plasma, 2 mg/h, Rate 2 mg/h, 338 h, Mean, read-out: EMD 121974 Concentrations, Mean) was 360 ng/mL. For the same molecule, the level at 504 h (human, plasma, 2 mg/h, Rate 2 mg/h, 504 h, Mean, read-out: EMD 121974 Concentrations, Mean) was 376 ng/mL, the level at 506 h (human, plasma, 2 mg/h, Rate 2 mg/h, 506 h, Mean, read-out: EMD 121974 Concentrations, Mean) was 337 ng/mL and the level at 2 h (human, plasma, 4 mg/h, Rate 4 mg/h, Mean, read-out: EMD 121974 Concentrations, Mean) was 328 ng/mL. For the same molecule, the level at 168 h (human, plasma, 4 mg/h, Rate 4 mg/h, 168 h, Mean, read-out: EMD 121974 Concentrations, Mean) was 626 ng/mL, the level at 170 h (human, plasma, 4 mg/h, Rate 4 mg/h, 170 h, Mean, read-out: EMD 121974 Concentrations, Mean) was 516 ng/mL and the level at 336 h (human, plasma, 4 mg/h, Rate 4 mg/h, 336 h, Mean, read-out: EMD 121974 Concentrations, Mean) was 726 ng/mL. For the same molecule, the level at 338 h (human, plasma, 4 mg/h, Rate 4 mg/h, 338 h, Mean, read-out: EMD 121974 Concentrations, Mean) was 559 ng/mL, the level at 504 h (human, plasma, 4 mg/h, Rate 4 mg/h, 504 h, Mean, read-out: EMD 121974 Concentrations, Mean) was 665 ng/mL and the level at 506 h (human, plasma, 4 mg/h, Rate 4 mg/h, 506 h, Mean, read-out: EMD 121974 Concentrations, Mean) was 681 ng/mL. It also gave a level at 2 h (human, plasma, 8 mg/h, Rate 8 mg/h, Mean, read-out: EMD 121974 Concentrations, Mean) of 503 ng/mL, a level at 168 h (human, plasma, 8 mg/h, Rate 8 mg/h, 168 h, Mean, read-out: EMD 121974 Concentrations, Mean) of 1460 ng/mL and a level at 170 h (human, plasma, 8 mg/h, Rate 8 mg/h, 170 h, Mean, read-out: EMD 121974 Concentrations, Mean) of 1210 ng/mL. The level at 336 h (human, plasma, 8 mg/h, Rate 8 mg/h, 336 h, Mean, read-out: EMD 121974 Concentrations, Mean) was 525 ng/mL, the level at 338 h (human, plasma, 8 mg/h, Rate 8 mg/h, 338 h, Mean, read-out: EMD 121974 Concentrations, Mean) was 972 ng/mL and the level at 504 h (human, plasma, 8 mg/h, Rate 8 mg/h, 504 h, Mean, read-out: EMD 121974 Concentrations, Mean) was 1630 ng/mL. It also gave a level at 506 h (human, plasma, 8 mg/h, Rate 8 mg/h, 506 h, Mean, read-out: EMD 121974 Concentrations, Mean) of 1290 ng/mL, a level at 2 h (human, plasma, 12 mg/h, Rate 12 mg/h, Mean, read-out: EMD 121974 Concentrations, Mean) of 499 ng/mL and a level at 168 h (human, plasma, 12 mg/h, Rate 12 mg/h, 168 h, Mean, read-out: EMD 121974 Concentrations, Mean) of 1770 ng/mL. The level at 170 h (human, plasma, 12 mg/h, Rate 12 mg/h, 170 h, Mean, read-out: EMD 121974 Concentrations, Mean) was 1410 ng/mL, the level at 336 h (human, plasma, 12 mg/h, Rate 12 mg/h, 336 h, Mean, read-out: EMD 121974 Concentrations, Mean) was 2440 ng/mL and the level at 338 h (human, plasma, 12 mg/h, Rate 12 mg/h, 338 h, Mean, read-out: EMD 121974 Concentrations, Mean) was 1670 ng/mL. It also gave a level at 504 h (human, plasma, 12 mg/h, Rate 12 mg/h, 504 h, Mean, read-out: EMD 121974 Concentrations, Mean) of 1750 ng/mL and a level at 506 h (human, plasma, 12 mg/h, Rate 12 mg/h, 506 h, Mean, read-out: EMD 121974 Concentrations, Mean) of 1550 ng/mL.
